Values joined by “and” are separate entries in the source; they are usually repeats but may differ in a detail not shown here. Identical values can stand only once. Inconclusive results and toxic doses are left out. Rule for the calls: active = survival T/C of 150% or more; inactive = T/C below 125% in these data.
Tested on: P388 leukemia ip, CD2F1 mice, survival T/C
Experiment: NCI In Vivo Anticancer Drug Screen. Data for tumor model P388 Leukemia (intraperitoneal) in CD2F1 (CDF1) mice
Conditions: endpoint: median survival time, higher = longer survival
How it was run: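 Mice carrying the transplanted tumor received test compound or vehicle. Survival was recorded in each group, and the value is the treated-group measurement divided by that of the vehicle-treated control group.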

[1] = dose: 100.0 mg/kg/injection, schedule: Q04DX003 (ip), vehicle: Klucel (hydroxypropylcellulose) (HPC)
[2] = dose: 200.0 mg/kg/injection, schedule: Q04DX003 (ip), vehicle: Klucel (hydroxypropylcellulose) (HPC)
[3] = dose: 400.0 mg/kg/injection, schedule: Q04DX003 (ip), vehicle: Klucel (hydroxypropylcellulose) (HPC)
[4] = dose: 50.0 mg/kg/injection, schedule: Q01DX009 (ip), vehicle: Klucel (hydroxypropylcellulose) (HPC)

Measured: T/C

C1COC2(CCC3(CC2)OCCO3)O1
inactive: dose: 25.0 mg/kg/injection, schedule: Q04DX003 (ip), vehicle: Klucel (hydroxypropylcellulose) (HPC) 100 % of control | dose: 50.0 mg/kg/injection, schedule: Q04DX003 (ip), vehicle: Klucel (hydroxypropylcellulose) (HPC) 103 % of control | dose: 100.0 mg/kg/injection, schedule: Q01DX009 (ip), vehicle: saline sonified 111 % of control | [1] 101 % of control | dose: 200.0 mg/kg/injection, schedule: Q01DX009 (ip), vehicle: saline sonified 100 % of control | [2] 100 % of control | dose: 400.0 mg/kg/injection, schedule: Q01DX009 (ip), vehicle: saline sonified 100 % of control | [3] 99 % of control

COc1cc(O)c2c(O)c3c(c4c2c1[C@]1(C4)C(C)=CCCC1(C)C)[C@H](O)[C@@]1(O)CC(=O)C(C(N)=O)=C(O)[C@@]1(O)C3=O
inactive: dose: 6.25 mg/kg/injection, schedule: Q04DX003 (ip), vehicle: saline with Tween-80 100 % of control | dose: 12.0 mg/kg/injection, schedule: Q01DX009 (ip), vehicle: saline with Tween-80 112 % of control | dose: 12.5 mg/kg/injection, schedule: Q04DX003 (ip), vehicle: saline with Tween-80 100 % of control | dose: 25.0 mg/kg/injection, schedule: Q01DX009 (ip), vehicle: Klucel (hydroxypropylcellulose) (HPC) 120 % of control and 121 % of control | dose: 25.0 mg/kg/injection, schedule: Q04DX003 (ip), vehicle: saline with Tween-80 113 % of control | [4] 111 % of control

CC1CCN(C(=S)NNC(C)c2cc3ccccc3cn2)CC1 (configuration not stated)
inactive: dose: 6.25 mg/kg/injection, schedule: Q01DX005 (ip), vehicle: saline with Tween-80 114 % of control

CCCCCCCCCCCC(O)CCCC(O)CC(O)CC1CC2CC(CC(=O)O2)O1 (configuration not stated)
inactive: dose: 4.0 mg/kg/injection, schedule: Q01DX009 (ip), vehicle: Klucel (hydroxypropylcellulose) (HPC) 100 % of control | dose: 8.0 mg/kg/injection, schedule: Q01DX009 (ip), vehicle: Klucel (hydroxypropylcellulose) (HPC) 99 % of control | dose: 16.0 mg/kg/injection, schedule: Q01DX009 (ip), vehicle: Klucel (hydroxypropylcellulose) (HPC) 95 % of control | dose: 32.0 mg/kg/injection, schedule: Q01DX009 (ip), vehicle: Klucel (hydroxypropylcellulose) (HPC) 95 % of control | dose: 64.0 mg/kg/injection, schedule: Q01DX009 (ip), vehicle: Klucel (hydroxypropylcellulose) (HPC) 94 % of control

C/C(Br)=C(\C(=O)O)S(=O)(=O)O
inactive: dose: 5.0 mg/kg/injection, schedule: Q01DX009 (ip), vehicle: saline with Tween-80 106 % of control | dose: 10.0 mg/kg/injection, schedule: Q01DX009 (ip), vehicle: saline with Tween-80 97 % of control | dose: 20.0 mg/kg/injection, schedule: Q01DX009 (ip), vehicle: saline with Tween-80 99 % of control

COC1C(/C=C/c2cnc(N)s2)OC2OC(C)(C)OC21 (configuration not stated)
inactive: dose: 100.0 mg/kg/injection, schedule: Q04DX002 (ip), vehicle: saline with Tween-80 102 % of control | dose: 200.0 mg/kg/injection, schedule: Q04DX002 (ip), vehicle: saline with Tween-80 102 % of control | dose: 400.0 mg/kg/injection, schedule: Q04DX002 (ip), vehicle: saline with Tween-80 115 % of control

COC(=O)CC(C(=O)CSC(S(=O)(=O)c1ccccc1)S(=O)(=O)c1ccccc1)C(=O)OC (configuration not stated)
inactive: dose: 50.0 mg/kg/injection, schedule: Q01DX005 (ip), vehicle: Klucel (hydroxypropylcellulose) (HPC) 99 % of control | dose: 100.0 mg/kg/injection, schedule: Q01DX005 (ip), vehicle: Klucel (hydroxypropylcellulose) (HPC) 101 % of control | dose: 200.0 mg/kg/injection, schedule: Q01DX005 (ip), vehicle: Klucel (hydroxypropylcellulose) (HPC) 100 % of control

COc1nc(NC(C)C)nc(NC(C)C)n1
inactive: dose: 50.0 mg/kg/injection, schedule: Q04DX003 (ip), vehicle: saline with Tween-80 87 % of control | dose: 100.0 mg/kg/injection, schedule: Q04DX003 (ip), vehicle: saline with Tween-80 95 % of control | dose: 200.0 mg/kg/injection, schedule: Q04DX003 (ip), vehicle: saline with Tween-80 104 % of control

CC(=O)OC1C[C@@](C)(O)[C@@]23O[C@@H]2[C@@H]2O[C@]2(C)C3C2OC(=O)C(C)[C@H]12 (some centres not stated)
inactive: dose: 937.5 micrograms/kg/injection, schedule: Q01DX005 (ip), vehicle: Klucel (hydroxypropylcellulose) (HPC) 98 % of control | dose: 1875.0 micrograms/kg/injection, schedule: Q01DX005 (ip), vehicle: Klucel (hydroxypropylcellulose) (HPC) 100 % of control | dose: 3750.0 micrograms/kg/injection, schedule: Q01DX005 (ip), vehicle: Klucel (hydroxypropylcellulose) (HPC) 100 % of control | dose: 7500.0 micrograms/kg/injection, schedule: Q01DX005 (ip), vehicle: Klucel (hydroxypropylcellulose) (HPC) 97 % of control

CCCCCCCn1cnc2cc(N3CCOCC3)c([N+](=O)[O-])cc2c1=O
inactive: [1] 102 % of control | [2] 95 % of control | [3] 100 % of control

C=CCN1C(=O)NC(=O)C(c2ccccc2)C1=O (configuration not stated)
inactive: [4] 98 % of control | dose: 100.0 mg/kg/injection, schedule: Q01DX009 (ip), vehicle: Klucel (hydroxypropylcellulose) (HPC) 100 % of control | dose: 200.0 mg/kg/injection, schedule: Q01DX009 (ip), vehicle: Klucel (hydroxypropylcellulose) (HPC) 92 % of control

Reference: PubChem BioAssay AID330 (DTP/NCI, 2004)
